Results from patent US5023271A, “Pharmaceutical microemulsions” (priority 1985, dated 1991).

Key:
[1] = cited from earlier work
[2] = system: lipoprotein components of human serum; experiment: In vitro transfer of tocopherol from microemulsion to human serum lipoproteins (sodium chloride gradient); settings: 100 μl microemulsion of Example 1 + 900 μl saline, 1 hr, 37°
Description: The diffusion of tocopherol in the mixtures was compared with the distribution of lipoproteins in the same mixtures and with the distribution of tocopherol from the untreated emulsion.
For a control, 100 μl of the microemulsion were incubated with 900 μl of saline solution under the same conditions. Each mixture was underlayered in a sodium chloride gradient and separated by ultracentrifugation according to Foreman, et al, J Lipid Research (1977) 18:759-767. The fractions of various densities were collected and each fraction was assayed for the content of tocopherol, tocopherol acetate, and cholesterol. The microemulsion alone mixed with saline gives a single peak for tocopherol at a density of approximately 1.018 g/ml. […] The treatment of microemulsion with serum effects the transfer of the tocopherol to serum in conjunction with the lipoprotein content thereof.

[3] = system: lipoprotein fractions; experiment: Distribution of injected α-tocopherol and tocopherol acetate among serum lipoprotein fractions of rabbits
Description: The serum samples were also layered under a sodium chloride gradient and centrifuged. The distribution of the injected α-tocopherol and tocopherol acetate among the lipoprotein fractions was assessed.

[4] = Long term daily injection to rabbits, serum samples at 1 week intervals; settings: 1 ml preparation of Example 1 daily for 30 days
Description: New Zealand male rabbits were injected daily with 1 ml doses of the preparation of Example 1 for 30 days.

[5] = Short term serum and tissue levels after intravenous injection to rabbits
Description: (§1) The rabbits were then sacrificed and the tissues analyzed for their content of tocopherol and tocopherol acetate.

[6] = Serum and liver extract levels in rats after IV injection; settings: 1 ml preparation of Example 1 IV
Description: The animals were sacrificed at 15 minute intervals for the first hour, after two hours, and then after 1, 3, 5, and 10 days. The levels of α-tocopherol and tocopherol acetate were assayed in the sera and liver extracts.

[7] = in vivo; settings: rabbit, iv, 15 mL/animal
Description: as §1

Compound | adverse outcome of oral administration ([1]; in vivo, po) | adverse outcome of intravenous administration ([1]; intravenous, premature infants) | density of the tocopherol peak, microemulsion mixed with saline (control) [2] | distribution among lipoprotein fractions after injection ([3]; rabbit, in vivo, iv) | serum tocopherol acetate [4] | α-tocopherol acetate in circulation by the end of 4 hr ([5]; 15 ml preparation of Example 1 i.v., 4 hr) | α-tocopherol acetate in liver, spleen, and other tissues ([5]; after 4 hr) | hydrolysis of tocopherol acetate in liver [6] | distribution among lipoprotein fractions after injection ([3]; preparation of Example 1 i.v., serum samples on sodium chloride gradient) | concentration at 5 min [7] [µg/mL]
Cc1c(C)c2c(c(C)c1O)CCC(C)(CCCC(C)CCCC(C)CCCC(C)C)O2 (racemic) [α-tocopherol] | gastrointestinal problems | implicated in several neonatal deaths | approximately 1.018 g/ml | transferred, apparently to the LDL fraction, in exchange for cholesterol |  |  |  |  |  | 
CC(=O)Oc1c(C)c(C)c2c(c1C)CCC(C)(CCC[C@H](C)CCC[C@H](C)CCCC(C)C)O2 (stereo partly drawn) [tocopherol acetate, α-tocopherol (dl) acetate] |  |  |  |  | No tocopherol acetate was detectable | finally disappearing from the circulation by the end of the 4 hr period | no α-tocopherol acetate could be detected | completely hydrolyzed after approximately two hours | remained mainly at the density of the microemulsion alone | 280
